# Results: the supplement of paper PMC10307832
# Tests used:
# Assay in all cases: relative viability (nuclei count vs DMSO), 5 days (fraction); higher = more cells survive
# [1] = compound: O=c1[nH]cc(F)c(=O)[nH]1 [5-Fluorouracil] + CCNC(=O)c1noc(-c2cc(C(C)C)c(O)cc2O)c1-c1ccc(CN2CCOCC2)cc1 [Luminespib] (partner 0.01 µM)
# Procedure, shortened: (§1)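 Each reported value is a median over duplicate plates. It expresses relative viability: treated-well nuclei count divided by vehicle-well nuclei count. Lung cancer cell lines in 1536-well plates were dosed by pin tool a day after seeding, alone with one drug or with a fixed anchor-drug dose plus five library-drug doses (not always all listed) in √10 steps, and nuclei were counted after 5 days.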
# [2] = compound: CC1=C(CC(=O)O)c2cc(F)ccc2/C1=C\c1ccc([S+](C)[O-])cc1 [Sulindac] + Cc1nc(Nc2ncc(C(=O)Nc3c(C)cccc3Cl)s2)cc(N2CCN(CCO)CC2)n1 [Dasatinib] (partner 0.075 µM)
# Procedure, shortened: as §1
# [3] = compound: CN[C@@H]1C[C@H]2O[C@@](C)([C@@H]1OC)n1c3ccccc3c3c4c(c5c6ccccc6n2c5c31)C(=O)NC4 [Staurosporine] + CS(=O)(=O)N1CCN(Cc2cc3nc(-c4cccc5[nH]ncc45)nc(N4CCOCC4)c3s2)CC1 [Pictilisib] (partner 1 µM)
# Procedure, shortened: as §1
# [4] = compound: O=c1[nH]cc(F)c(=O)[nH]1 [5-Fluorouracil] + CS(=O)(=O)CCNCc1ccc(-c2ccc3ncnc(Nc4ccc(OCc5cccc(F)c5)c(Cl)c4)c3c2)o1 [Lapatinib] (partner 2 µM)
# Procedure, shortened: as §1
Cell Line,relative viability ([1]; first compound 0.02 µM),relative viability ([1]; first compound 0.2 µM),relative viability ([1]; first compound 0.6325 µM),relative viability ([1]; first compound 2 µM),relative viability ([2]; first compound 0.08 µM),relative viability ([2]; first compound 0.253 µM),relative viability ([2]; first compound 0.8 µM),relative viability ([2]; first compound 2.53 µM),relative viability ([2]; first compound 8 µM),relative viability ([3]; first compound 0.005 µM),relative viability ([3]; first compound 0.05 µM),relative viability ([3]; first compound 0.1581 µM),relative viability ([3]; first compound 0.5 µM),relative viability ([4]; first compound 0.02 µM),relative viability ([4]; first compound 0.2 µM),relative viability ([4]; first compound 0.6325 µM),relative viability ([4]; first compound 2 µM),relative viability ([3]; first compound 0.01581 µM)
NCI-H522,1.14,1.19,1.17,0.961,0.841,0.962,0.891,0.917,0.908,,,,,,,,,
NCI-H1944,0.73,0.625,0.3,0.185,0.207,0.202,0.18,0.2,0.269,0.295,0.26,0.231,0.184,0.843,0.908,0.474,0.268,
PC-14,0.117,0.151,0.171,0.191,0.25,0.293,,0.222,0.369,0.237,0.0413,0.0584,0.0397,0.305,0.433,0.327,0.292,0.12
NCI-H1650,0.213,0.185,0.246,0.211,0.304,0.353,,0.321,0.341,0.284,0.138,0.15,0.107,0.707,0.758,0.563,0.445,0.141
HCC-827,0.399,0.691,0.465,0.239,0.348,0.412,0.251,0.319,0.338,1.24,0.559,0.552,0.43,0.159,0.203,0.191,0.187,0.812
HCC-366,,,,,0.715,0.699,0.578,0.587,0.622,0.106,0.0691,0.0727,0.0401,0.996,0.945,0.523,0.0471,0.0757
HARA,0.964,0.739,0.705,0.509,0.248,0.25,0.277,0.327,0.26,0.193,0.0859,0.0523,0.062,0.922,0.892,0.657,0.568,0.23
NCI-H441,0.447,0.39,0.384,0.242,0.592,0.643,0.406,0.647,0.83,0.426,0.178,0.155,0.12,,,,,0.152
LXF-289,0.701,0.435,0.251,0.238,0.24,0.223,0.227,0.25,0.225,0.48,0.111,0.0648,0.0482,0.897,0.782,0.333,0.285,
SK-LU-1,0.196,0.216,0.231,0.193,0.157,0.162,0.168,0.143,0.202,0.412,0.145,0.137,0.124,0.904,0.956,0.846,0.704,0.187
CAL-12T,0.299,0.34,0.363,0.3,0.317,0.391,0.324,0.371,0.341,0.303,0.135,0.19,0.218,0.573,0.897,0.649,0.559,0.0968
COR-L 105,0.638,0.909,0.685,0.439,0.307,0.42,0.305,0.291,0.393,0.303,0.242,0.26,0.556,0.362,0.409,0.367,0.381,0.223
NCI-H2405,0.707,0.786,0.676,0.693,0.22,0.234,0.331,0.218,0.228,0.284,0.103,0.0688,0.064,1.06,1.22,1.06,0.63,0.135
NCI-H2228,0.158,0.156,0.145,0.18,0.592,0.596,0.375,0.549,0.526,0.187,0.325,0.116,0.0619,1.13,1.06,0.687,0.505,0.139
PC-3 [JPC-3],0.66,0.753,0.621,0.524,0.878,1.05,0.772,1.02,1.04,0.655,0.446,0.271,0.242,0.479,0.48,0.485,0.476,
SW 1573,0.253,0.228,0.323,0.169,0.392,0.691,,0.574,0.497,0.275,0.123,0.0832,0.0842,1.09,1.32,0.546,0.885,0.18
A549,,,,,,,,,,0.259,0.0679,0.061,0.0434,1.09,0.656,0.456,0.135,0.0929
NCI-H1623,0.395,0.361,0.412,0.364,0.552,0.444,0.525,0.501,0.519,,,,,,,,,
NCI-H1666,0.992,0.639,0.419,0.44,0.945,0.875,0.716,0.871,0.995,0.374,0.322,0.176,0.149,0.726,0.418,0.378,0.318,0.267
NCI-H2087,0.168,0.162,0.16,0.142,1.23,0.82,,0.8,1.11,0.833,0.313,0.165,0.138,1.03,1.22,0.748,0.548,0.435
NCI-H596,1,0.728,0.726,0.542,0.563,0.56,0.6,0.666,0.641,0.407,0.198,0.129,0.105,1.05,0.944,0.645,0.516,0.222

Cell Line,relative viability ([1]; first compound 0.02 µM),relative viability ([1]; first compound 0.2 µM),relative viability ([1]; first compound 0.6325 µM),relative viability ([1]; first compound 2 µM),relative viability ([2]; first compound 0.08 µM),relative viability ([2]; first compound 0.253 µM),relative viability ([2]; first compound 0.8 µM),relative viability ([2]; first compound 2.53 µM),relative viability ([2]; first compound 8 µM),relative viability ([3]; first compound 0.005 µM),relative viability ([3]; first compound 0.05 µM),relative viability ([3]; first compound 0.1581 µM),relative viability ([3]; first compound 0.5 µM),relative viability ([4]; first compound 0.02 µM),relative viability ([4]; first compound 0.2 µM),relative viability ([4]; first compound 0.6325 µM),relative viability ([4]; first compound 2 µM),relative viability ([3]; first compound 0.01581 µM)
Calu-6,,,,,,,,,,0.584,0.222,0.0573,0.0441,1.04,1.01,0.908,0.537,0.298
LCLC-103H,0.951,0.999,0.521,0.28,0.5,0.477,0.376,0.458,0.508,0.495,0.274,0.193,0.158,,,,,0.211
HCC-15,0.293,0.294,0.292,0.225,0.674,0.614,0.544,0.573,0.656,0.718,0.566,0.216,0.113,0.967,0.898,0.533,0.314,
H3255,0.945,1,0.83,0.741,0.407,0.319,0.487,0.389,0.399,0.325,0.145,0.135,0.0752,0.269,0.264,0.255,0.257,0.238
NCI-H1915,0.658,0.855,0.699,0.597,0.345,0.335,,0.291,0.322,0.719,0.35,,0.0773,0.908,0.999,0.97,0.724,
NCI-H1563,0.49,0.478,0.499,0.488,0.414,0.451,0.476,0.418,0.497,0.749,0.577,0.498,0.433,0.769,0.942,0.975,0.74,0.594
NCI-H650,0.766,0.533,0.348,0.277,0.52,0.462,0.469,0.466,0.47,0.416,0.344,0.24,0.233,0.555,0.681,0.524,0.455,0.297
NCI-H2126,0.788,0.371,0.302,0.292,0.558,0.585,0.597,0.57,0.671,0.496,0.342,0.278,0.286,0.801,0.444,0.321,0.281,0.309
NCI-H838,0.261,0.245,0.209,0.16,0.275,0.334,0.311,0.281,0.34,0.19,0.172,0.144,0.126,0.918,1.03,0.433,0.271,0.151
NCI-H2342,0.807,0.731,0.616,0.467,0.276,0.339,0.287,0.303,0.319,,,,,,,,,
EMC-BAC-2,1.12,1.23,1.22,1.16,0.269,0.323,0.378,0.314,0.367,0.29,0.141,0.195,0.176,0.968,0.975,0.858,0.907,0.129
NCI-H1355,0.644,0.57,0.287,0.246,0.872,0.756,,0.643,0.795,0.277,0.215,0.153,0.152,0.97,0.899,0.39,0.311,0.157
HCC-44,1.29,1.22,0.853,0.355,,,,,,0.147,0.13,0.133,0.131,1.05,0.974,0.609,0.311,0.152
NCI-H1299,,,,,,,,,,0.121,0.109,0.0457,0.0455,1.05,0.978,0.959,0.817,0.119
LK-2,,,,,0.325,0.215,,,0.313,0.789,0.466,0.199,0.0791,1.17,1.08,0.697,0.535,0.812
HCC-78,,,,,0.552,0.313,0.345,0.587,0.401,0.212,0.178,0.223,0.206,0.768,1.2,0.265,,0.175
ChaGo-K-1,0.6,0.513,0.406,0.358,0.597,0.618,0.64,0.587,0.651,0.692,0.52,0.244,,,,,,
SW 900,0.153,0.161,0.213,0.196,,0.582,,0.524,0.623,,,,,,,,,
NCI-H1703,,,,,,,,,,0.223,0.191,0.163,0.114,1.23,1.44,1.09,0.556,0.175
EBC-1,,,,,,,,,,0.167,0.126,0.154,0.139,0.189,0.187,0.178,0.249,0.112
IA-LM,,,,,,,,,,0.266,0.256,0.0809,0.0459,0.812,0.461,0.293,0.352,0.323
